What was measured:
[1] = biological target: T1, GCN2 (Homo sapiens, UniProt Q9P2K8); experiment: GCN2 enzyme assay (TR-FRET Lanthascreen, phosphorylation of GFP-eIF2alpha); format: biochemical; details: 10 μM ATP, 80 nM GFP-eIF2alpha, 30 nM GCN2, room temperature
Source text: GCN2: Assay principle & conditions
This assay can quantificate the activity of the serin kinase GCN2 (general control non-derepressible-2).
This kinase is involved in the stress metabolism of cells. It is activated upon starvation (amino acid depletion). Its natural substrate is eIF2a (eukaryotic initiation factor 2 alpha subunit), a translation factor, which gets activated (phosphorylated) by GCN2 in case of an amino acid bottleneck in the cells. This in turn leads to a halt of the protein synthesis. Inhibition of GCN2 results in stopping this mechanism: The cell can not stop protein production upon “starvation” stress.
The assay is run in two steps: the enzymatic reaction and the detection step. In the first step GCN2 is incubated with 10 μM ATP and 80 nM of the GFP-labelled substrate eIF2alpha at room temperature.
The enzymatic reaction is stopped by addition of EDTA. The amount of phosphorylated eIF2alpha is determined by TR-FRET (Lanthascreen): A complex is formed consisting of antibody and GFP labelled phospho-eIF2a, which allows a FRET upon exitation at 340 nm.
The GCN2-activity is directly proportional to the ratio of fluorescence units at the emission wavelengthh 520 nm (phosphopeptide-sensitive wavelength=emission of GFP) to the units at 495 nm (reference wavelength=emission of Terbium-chelate).
Final Concentrations in the Enzymatic Reaction
Target sequence in this assay (Q9P2K8 whole entry, species assumed): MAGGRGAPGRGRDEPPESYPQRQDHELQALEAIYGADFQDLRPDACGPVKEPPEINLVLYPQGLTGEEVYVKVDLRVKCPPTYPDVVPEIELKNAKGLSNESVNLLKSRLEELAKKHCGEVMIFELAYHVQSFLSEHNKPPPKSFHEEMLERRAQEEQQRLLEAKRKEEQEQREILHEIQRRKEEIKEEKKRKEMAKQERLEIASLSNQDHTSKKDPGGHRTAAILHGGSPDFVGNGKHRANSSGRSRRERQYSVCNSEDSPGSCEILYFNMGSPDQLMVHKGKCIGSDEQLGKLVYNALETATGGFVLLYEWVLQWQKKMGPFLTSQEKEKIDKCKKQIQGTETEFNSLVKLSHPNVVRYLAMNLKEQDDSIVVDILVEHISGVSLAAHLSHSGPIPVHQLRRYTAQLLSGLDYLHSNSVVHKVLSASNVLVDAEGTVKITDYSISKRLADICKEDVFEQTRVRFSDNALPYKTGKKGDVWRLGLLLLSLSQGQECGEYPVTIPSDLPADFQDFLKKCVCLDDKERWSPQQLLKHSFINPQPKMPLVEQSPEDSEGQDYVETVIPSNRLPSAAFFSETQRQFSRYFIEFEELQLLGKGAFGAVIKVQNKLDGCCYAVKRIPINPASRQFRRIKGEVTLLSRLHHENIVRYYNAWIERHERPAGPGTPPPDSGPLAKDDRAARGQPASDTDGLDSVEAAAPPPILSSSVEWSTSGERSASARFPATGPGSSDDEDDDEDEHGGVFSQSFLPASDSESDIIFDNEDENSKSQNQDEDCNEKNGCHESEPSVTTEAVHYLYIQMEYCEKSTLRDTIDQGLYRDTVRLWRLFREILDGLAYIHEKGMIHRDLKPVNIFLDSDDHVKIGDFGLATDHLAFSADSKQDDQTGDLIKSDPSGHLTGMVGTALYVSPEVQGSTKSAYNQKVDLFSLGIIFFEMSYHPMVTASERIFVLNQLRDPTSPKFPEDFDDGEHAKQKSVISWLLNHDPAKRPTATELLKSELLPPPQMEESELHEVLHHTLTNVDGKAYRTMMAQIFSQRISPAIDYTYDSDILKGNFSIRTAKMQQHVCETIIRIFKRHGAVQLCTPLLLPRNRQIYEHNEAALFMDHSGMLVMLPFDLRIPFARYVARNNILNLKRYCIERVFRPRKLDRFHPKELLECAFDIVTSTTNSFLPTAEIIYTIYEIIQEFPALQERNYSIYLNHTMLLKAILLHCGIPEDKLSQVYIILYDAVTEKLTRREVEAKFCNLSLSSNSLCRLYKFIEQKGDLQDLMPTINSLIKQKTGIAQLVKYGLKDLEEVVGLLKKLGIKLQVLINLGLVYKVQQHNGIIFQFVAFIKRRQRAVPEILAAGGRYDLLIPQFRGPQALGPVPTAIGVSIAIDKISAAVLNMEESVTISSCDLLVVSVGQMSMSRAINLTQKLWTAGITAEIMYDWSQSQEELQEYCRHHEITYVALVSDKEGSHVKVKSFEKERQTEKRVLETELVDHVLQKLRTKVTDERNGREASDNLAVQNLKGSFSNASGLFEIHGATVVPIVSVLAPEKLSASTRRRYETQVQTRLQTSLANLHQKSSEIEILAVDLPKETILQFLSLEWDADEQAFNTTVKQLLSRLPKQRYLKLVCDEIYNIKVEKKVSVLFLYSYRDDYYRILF

[2] = biological target: T1, GCN2; experiment: Cellular assay for GCN2 activity (phospho-eIF2alpha immunocytochemistry, tryptophanol-stimulated U2OS cells); format: cell-based; set-up: endogenous in cells; host or cells: U2OS; details: 2 hours compound, then 600 μM tryptophanol 30 minutes, anti-phospho-eIF2alpha, read-out: IC50 GCN2 (cell assay)
Experimental: Cellular Assay for the Determination of Compound Activities
Human U2OS cells (2000 cells/well) are seeded into 384-well plates and incubated for 20 hours.
The next day, the cells are treated with the test compounds and incubated for 2 hours. Then, tryptophanol, at a final concentration of 600 μM, is added to the cells and those are incubated for 30 minutes.
The analysis of cellular GCN2 activities is done by immunocytochemistry. Briefly, cells are fixated on the well surfaces by formaldehyde and permeabilised with Triton X-100. The primary antibody (anti-phospho-eIF2alpha (Ser51, Cell Signalling Technology, #3398) is incubated on the treated cells for 20 hours, followed by a 60 minutes incubation of the secondary antibody (anti-rabbit-IgG-Alexa 488; Molecular Probes #11008). The analysis and quantification of phosphorylated GCN2 is done by scanning the plates in the Acumen Explorer system (TTPLabtech). The obtained data are normalised against the untreated control wells (DMSO only) and expressed as % effect values. The determination of IC50 values is done by using the Graph Pad Prism software.
Target sequence in this assay (Q9P2K8 whole entry): as the sequence (Q9P2K8 whole entry, species assumed) above

| Compound | IC50 [1] [nM] | IC50 [2] [nM] |
| --- | --- | --- |
| OC[C@@H]1C[C@H]1Cn1cc(Nc2ncc3nnn(-c4ccc(Cl)c(F)c4)c3n2)cn1 (relative stereo) [Compound A98, ((trans)-2-{4-[3-(4-chloro-3-fluoro-phenyl)-3H-[1,2,3]triazolo[4,5-d]pyrimidin-5-ylamino]-pyrazol-1-ylmethyl}-cyclopropyl)-methanol] | < 300 | 300 to 3000 |
| COc1ccc(-n2nnc3cnc(Nc4cnn(-c5ccccc5)c4)nc32)cc1 [Compound A1, [3-(4-methoxy-phenyl)-3H-[1,2,3]triazolo[4,5-d]pyrimidin-5-yl]-(1-phenyl-1H-pyrazol-4-yl)-amine] | 300 to 3000 | 3000 to 50000 |
| COc1ccc(-n2nnc3cnc(Nc4cn[nH]c4)nc32)cc1 [Compound A3, [3-(4-methoxy-phenyl)-3H-[1,2,3]triazolo[4,5-d]pyrimidin-5-yl]-(1H-pyrazol-4-yl)-amine] | < 300 | 3000 to 50000 |
| c1ccc(-n2nnc3cnc(Nc4cn[nH]c4)nc32)cc1 [Compound A4, (3-phenyl-3H-[1,2,3]triazolo[4,5-d]pyrimidin-5-yl)-(1H-pyrazol-4-yl)-amine] | < 300 | 3000 to 50000 |
| COc1ccc(-n2nnc3cnc(Nc4cnn(C5CCNCC5)c4)nc32)cc1 [Compound A6, [3-(4-methoxy-phenyl)-3H-[1,2,3]triazolo[4,5-d]pyrimidin-5-yl]-(1-piperidin-4-yl-1H-pyrazol-4-yl)-amine] | < 300 | 300 to 3000 |
| COc1ccc(-n2nnc3cnc(Nc4cnn(C5CCN(C)CC5)c4)nc32)cc1 [Compound A8, [3-(4-methoxy-phenyl)-3H-[1,2,3]triazolo[4,5-d]pyrimidin-5-yl]-[1-(1-methyl-piperidin-4-yl)-1H-pyrazol-4-yl]-amine] | < 300 | 300 to 3000 |
| CN1CCC(n2cc(Nc3ncc4nnn(-c5ccccc5)c4n3)cn2)CC1 [Compound A11, [1-(1-methyl-piperidin-4-yl)-1H-pyrazol-4-yl]-(3-phenyl-3H-[1,2,3]triazolo[4,5-d]pyrimidin-5-yl)-amine] | 300 to 3000 | 300 to 3000 |
| COc1ccc(-n2nnc3cnc(Nc4cnn(C5COC5)c4)nc32)cc1 [Compound A23, 3-(4-methoxyphenyl)-N-[1-(oxetan-3-yl)pyrazol-4-yl]triazolo[4,5-d]pyrimidin-5-amine] | < 300 | 300 to 3000 |
| COCCN1CCC(n2cc(Nc3ncc4nnn(-c5ccc(OC)cc5)c4n3)cn2)CC1 [Compound A26, N-[1-[1-(2-methoxyethyl)-4-piperidyl]pyrazol-4-yl]-3-(4-methoxyphenyl)triazolo[4,5-d]pyrimidin-5-amine] | < 300 | 300 to 3000 |
| COCCOc1ccc(-n2nnc3cnc(Nc4cnn(C5CCN(C)CC5)c4)nc32)cc1 [Compound A27, 3-[4-(2-methoxyethoxy)phenyl]-N-[1-(1-methyl-4-piperidyl)pyrazol-4-yl]triazolo[4,5-d]pyrimidin-5-amine] | < 300 | 300 to 3000 |
| CCOc1ccc(-n2nnc3cnc(Nc4cnn(C5CCN(C)CC5)c4)nc32)cc1 [Compound A28, 3-(4-ethoxyphenyl)-N-[1-(1-methyl-4-piperidyl)pyrazol-4-yl]triazolo[4,5-d]pyrimidin-5-amine] | < 300 | 300 to 3000 |
| COc1cc(-n2nnc3cnc(Nc4cnn(C5CCN(C)CC5)c4)nc32)ccn1 [Compound A30, 3-(2-methoxy-4-pyridyl)-N-[1-(1-methyl-4-piperidyl)pyrazol-4-yl]triazolo[4,5-d]pyrimidin-5-amine] | < 300 | 300 to 3000 |
| CN1CCC(n2cc(Nc3ncc4nnn(-c5ccc(Cl)c(F)c5)c4n3)cn2)CC1 [Compound A44, [3-(4-chloro-3-fluoro-phenyl)-3H-[1,2,3]triazolo[4,5-d]pyrimidin-5-yl]-[1-(1-methyl-piperidin-4-yl)-1H-pyrazol-4-yl]-amine] | < 300 | 300 to 3000 |
| CCOc1ccc(-n2nnc3cnc(Nc4cnn(CC)c4)nc32)cc1 [Compound A46, [3-(4-ethoxy-phenyl)-3H-[1,2,3]triazolo[4,5-d]pyrimidin-5-yl]-(1-ethyl-1H-pyrazol-4-yl)-amine] | < 300 | 300 to 3000 |
| CN1CCC(n2cc(Nc3ncc4nnn(-c5ccc(N6CCCC6=O)cc5)c4n3)cn2)CC1 [Compound A48, 1-(4-{5-[1-(1-methyl-piperidin-4-yl)-1H-pyrazol-4-ylamino]-[1,2,3]triazolo[4,5-d]pyrimidin-3-yl}-phenyl)-pyrrolidin-2-one] | < 300 | 300 to 3000 |
| CCOc1ccc(-n2nnc3cnc(Nc4cnn(CCCOC)c4)nc32)cc1 [Compound A49, [3-(4-ethoxy-phenyl)-3H-[1,2,3]triazolo[4,5-d]pyrimidin-5-yl]-[1-(3-methoxy-propyl)-1H-pyrazol-4-yl]-amine] | < 300 | 3000 to 50000 |
| CCOc1ccc(-n2nnc3cnc(Nc4cnn(CCOC(C)(C)C)c4)nc32)cc1 [Compound A51, [1-(2-tert-butoxy-ethyl)-1H-pyrazol-4-yl]-[3-(4-ethoxy-phenyl)-3H-[1,2,3]triazolo[4,5-d]pyrimidin-5-yl]-amine] | < 300 | 300 to 3000 |
| CCOc1ccc(-n2nnc3cnc(Nc4cnn(CCn5cccn5)c4)nc32)cc1 [Compound A54, [3-(4-ethoxy-phenyl)-3H-[1,2,3]triazolo[4,5-d]pyrimidin-5-yl]-[1-(2-pyrazol-1-yl-ethyl)-1H-pyrazol-4-yl]-amine] | < 300 | 300 to 3000 |
| COCCOc1ccc(-n2nnc3cnc(Nc4cnn(C)c4)nc32)cc1 [Compound A56, {3-[4-(2-methoxy-ethoxy)-phenyl]-3H-[1,2,3]triazolo[4,5-d]pyrimidin-5-yl}-(1-methyl-1H-pyrazol-4-yl)-amine] | < 300 | 300 to 3000 |
| COCCOc1ccc(-n2nnc3cnc(Nc4cnn(CCn5cccn5)c4)nc32)cc1 [Compound A65, {3-[4-(2-methoxy-ethoxy)-phenyl]-3H-[1,2,3]trtazolo[4,5-d]pyrimidin-5-yl}-[1-(2-pyrazol-1-yl-ethyl)-1H-pyrazol-4-yl]-amine] | < 300 | 300 to 3000 |
| CN1CCC(n2cc(Nc3ncc4nnn(-c5cccc(C(N)=O)c5)c4n3)cn2)CC1 [Compound A67, 3-{5-[1-(1-methyl-piperidin-4-yl)-1H-pyrazol-4-ylamino]-[1,2,3]triazolo[4,5-d]pyrimidin-3-yl}-benzamide] | < 300 | 3000 to 50000 |
| CCOc1ccc(-n2nnc3cnc(Nc4cnn(CCN5CCOCC5=O)c4)nc32)cc1 [Compound A149, 4-(2-{4-[3-(4-ethoxy-phenyl)-3H-[1,2,3]triazolo[4,5-d]pyrimidin-5-ylamino]-pyrazol-1-yl}-ethyl)-morpholin-3-one] | < 300 | – |
| CCOc1ccc(-n2nnc3cnc(Nc4cnn(C5CN(C(=O)COC)C5)c4)nc32)cc1 [Compound A150, 1-(3-{4-[3-(4-ethoxy-phenyl)-3H-[1,2,3]triazolo[4,5-d]pyrimidin-5-ylamino]-pyrazol-1-yl}-azetidin-1-yl)-2-methoxy-ethanone] | < 300 | – |
| CCOc1ccc(-n2nnc3cnc(Nc4cnn(CCN5CCC(O)C5)c4)nc32)cc1 (stereo not drawn) [Compound A151, 1-(2-{4-[3-(4-ethoxy-phenyl)-3H-[1,2,3]triazolo[4,5-d]pyrimidin-5-ylamino]-pyrazol-1-yl}-ethyl)-pyrrolidin-3-ol] | < 300 | – |
| CC(C)(N)c1ccc(-n2nnc3cnc(Nc4cnn(C5CCOCC5)c4)nc32)cc1 [Compound A152, {3-[4-(1-amino-1-methyl-ethyl)-phenyl]-3H-[1,2,3]triazolo[4,5-d]pyrimidin-5-yl}-[1-(tetrahydro-pyran-4-yl)-1H-pyrazol-4-yl]-amine] | < 300 | – |
| CN1CCC(n2cc(Nc3ncc4nnn(-c5ccc(Cl)cc5)c4n3)cn2)CC1 [Compound A153, [3-(4-chloro-phenyl)-3H-[1,2,3]triazolo[4,5-d]pyrimidin-5-yl]-[1-(1-methyl-piperidin-4-yl)-1H-pyrazol-4-yl]-amine] | < 300 | – |
| CS(=O)(=O)N1CCC(n2cc(Nc3ncc4nnn(-c5ccc(F)c(Cl)c5)c4n3)cn2)CC1 [Compound A154, [3-(3-chloro-4-fluoro-phenyl)-3H-[1,2,3]triazolo[4,5-d]pyrimidin-5-yl]-[1-(1-methanesulfonyl-piperidin-4-yl)-1H-pyrazol-4-yl]-amine] | 300 to 3000 | – |

Source: patent US9409914B2, “Triazolo[4,5-d]pyrimidine derivatives” (Merck Patent GmbH, priority 2012, dated 2016)
